The record followed here is PubChem BioAssay AID1949 (Southern Research Institute, 2009).

In brackets after ≈: the same amount, converted by molar mass. Results filed as inconclusive are left out. Activity calls are given as the source filed them. The rule behind the calls is not given here. Some results are limits rather than exact numbers.

The subject of this experiment is M. tuberculosis H37Rv growth inhibition. The experiment can be described thus: Mycobacterium tuberculosis H37Rv growth inhibition, cell based, confirmatory dose response (AID 1949).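 Note: bacteria grown 7 days with compound before Alamar blue readout.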
`CCCCc1ccc(N/C(N)=N\c2nc(C)cc(C)n2)cc1`: the IC50 (commonly the midpoint of a concentration-inhibition curve) is 23.3 µg/mL (≈ 78.2 µM).
For the molecule `O=[N+]([O-])c1ccc(NCCNc2nc3ccccc3nc2N2CCOCC2)cc1`, the IC50 is 1.64 µg/mL (≈ 4.16 µM).
For `COc1cccc(-n2nnnc2S(=O)(=O)Cc2ccccc2)c1`, the IC50 was 0.38 µg/mL (≈ 1.15 µM).
On to `CCOC(=O)c1c(NC(=S)NC2CCN(Cc3ccccc3)CC2)sc(C)c1-c1ccccc1`, for which the IC50 was 1.38 µg/mL (≈ 2.8 µM).
Turning to `CCOC(=O)C(C)Oc1noc2nc(-c3ccccc3)ccc12` (stereo not given), the IC50 was 3.92 µg/mL (≈ 12.6 µM).
Then `O=C(Nc1ccc([N+](=O)[O-])cc1)N1CCN(c2cccc(C(F)(F)F)c2)CC1`, with 1.56 µg/mL (≈ 3.96 µM); and `CC1CN(c2ccc([N+](=O)[O-])cc2)CCN1C(=O)c1cccc(Br)c1` (stereo not given), with 2.83 µg/mL (≈ 7 µM); and `O=C(Nc1cccc(Cl)c1)Nc1ccccc1OC(F)(F)C(F)F`, with 0.19 µg/mL (≈ 0.524 µM).
As for `CCCc1cc(C(=O)OC)c(NC(=O)c2cc3ccccc3oc2=O)s1`, the concentration for half-maximal inhibition (IC50) was 39.4 µg/mL (≈ 106 µM).
On to `CCc1nc2ccccc2n1CC(O)COc1ccc(Br)cc1` (stereo not given), for which the concentration for half-maximal inhibition (IC50) is 4.11 µg/mL (≈ 11 µM).
Next, `C=CCN1C(=O)C(O)(CC(=O)c2ccc(C)cc2C)c2ccccc21` (stereo not given): 14.6 µg/mL (≈ 43.5 µM); `COc1ccc(OCCC(=O)Nc2nc(C3CCCCC3)cs2)cc1`: 25.5 µg/mL (≈ 70.8 µM); `Cc1c(Cl)ccc(OCCCN2CCCC(C)C2)c1C` (stereo not given): 3.16 µg/mL (≈ 10.7 µM).
Next, `CC(C)(C)c1ccc(C(=O)Nc2cccc(NC(=O)c3cccs3)c2)cc1`: 2.28 µg/mL (≈ 6.02 µM).
With `CCN(CC)CCC(=O)c1ccc(C(C)C)cc1`, the IC50 is 47.6 µg/mL (≈ 193 µM).
For `O=[N+]([O-])c1cccc(NC(=S)Nc2cc(C(F)(F)F)ccc2F)c1`, the half-maximal inhibitory concentration (IC50) is 19 µg/mL (≈ 52.9 µM).
As to `Cn1nc([N+](=O)[O-])nc1Sc1ncnn1-c1ccccc1`, the IC50 was 2.98 µg/mL (≈ 9.83 µM).
Then `Cc1cc(C)cc(OCC(=O)Nc2ccc3oc(-c4ccc(F)cc4)nc3c2)c1`, with > 50 µg/mL (inactive); and `Cc1cccc(-n2nc([N+](=O)[O-])c(=NCCC3=CCCCC3)n2O)c1`, with 3.62 µg/mL (≈ 10.5 µM).
Regarding `c1ccc2cc(OCCCn3ccnc3)ccc2c1`, the IC50 was 10.3 µg/mL (≈ 40.9 µM).
Next, `CCOC(=O)COc1ccc2oc(C)c(C(=O)OC)c2c1`: 6.25 µg/mL (≈ 21.4 µM); `CCCc1ccc(OCC(=O)Nc2ccc(Cl)cc2Cl)cc1`: 2.86 µg/mL (≈ 8.46 µM).
Next, `CCc1c(C)sc(NC(=S)N2CCN(CC)CC2)c1C(=O)OC`: 16.3 µg/mL (≈ 45.8 µM); `O=C(CCc1ccccc1)NC1C2CC3CC(C2)CC1C3` (stereo not given): 3.08 µg/mL (≈ 10.9 µM); `O=C(Nc1ccncc1)c1ccc2nc(-c3ccccc3)c(-c3ccccc3)nc2c1`: 4.64 µg/mL (≈ 11.5 µM).
Next, `c1ccc2cc3nc4c(ccc5ccccc54)nc3cc2c1`: less than 0.1 µg/mL; `O=C(CCc1ccccc1)NC(=S)Nc1ccc(N2CCCCC2)cc1`: 0.27 µg/mL (≈ 0.735 µM).
With `O=C(CCSc1nnc(-c2ccccc2)o1)Nc1ccc(F)cc1`, the IC50 is 5.2 µg/mL (≈ 15.1 µM).
Regarding `CNc1nc(N2CCc3ccccc32)ncc1F`, the IC50 was 0.91 µg/mL (≈ 3.73 µM).
Next, `Nc1nc2ccccc2n1CCOc1ccc(Cl)cc1Cl`: 3.85 µg/mL (≈ 11.9 µM); `O=[N+]([O-])/C=C/c1cccn1-c1ccc(Cl)cc1`: 9.66 µg/mL (≈ 38.8 µM); `Cc1cccc(C(=O)Nc2nc3ccccc3[nH]2)c1`: 0.74 µg/mL (≈ 2.94 µM).
Turning to `CCCCNCCCCOc1ccc2ccccc2c1Br`, the IC50 was 1.63 µg/mL (≈ 4.65 µM).
Next, `COc1c2ccoc2nc2c(OC)cccc12`: 1.76 µg/mL (≈ 7.68 µM).
Then `Clc1ccc(OCCCNCc2ccccc2)c2ccccc12`, with 1.36 µg/mL (≈ 4.17 µM); and `Cc1cccc(C(=O)NC(=S)N2CCC(C)CC2)c1`, with 2.97 µg/mL (≈ 10.7 µM); and `COc1cc(C=O)ccc1OC(=O)c1cccs1`, with 4.13 µg/mL (≈ 15.7 µM).
Then `COc1ccc(Cc2nn3c(-c4ccccc4)nnc3s2)cc1`, with 0.63 µg/mL (≈ 1.95 µM).
Turning to `c1ccc(CCN2CCN(c3ncnc4sc5c(c34)CCCC5)CC2)cc1`, the IC50 was 23.9 µg/mL (≈ 63.2 µM).
Next, `O=[N+]([O-])c1ccc(NC(=S)NCc2ccc(Cl)c(Cl)c2)cc1`: 1.84 µg/mL (≈ 5.17 µM); `O=[N+]([O-])c1ccc(NCCNc2nc(N3CCCC3)nc3ccccc23)cc1`: 1.06 µg/mL (≈ 2.8 µM); `Cc1ccnc(NC(=O)COc2ccc([N+](=O)[O-])cc2)c1`: 0.43 µg/mL (≈ 1.5 µM).
For the molecule `COC(=O)COc1ccc(NC(=O)c2ccccc2I)cc1`, the IC50 was 0.62 µg/mL (≈ 1.51 µM).
Then `CCN(CC)CCn1nc2c3c(cccc3c1=O)-c1ccccc1-2`, with 5.48 µg/mL (≈ 17.2 µM); and `Cc1cc(C)nc(Nc2ccc(N3CCCC3)cc2)n1`, with 9.69 µg/mL (≈ 36.1 µM); and `O=C(COc1cccc(Cl)c1)Nc1ccc(F)c(Cl)c1`, with 5.7 µg/mL (≈ 18.1 µM).
For the molecule `Cc1cc(OCCCCn2ccnc2)cc(C(C)C)c1`, the half-inhibitory concentration (IC50) is 2.03 µg/mL (≈ 7.45 µM).
Then `COc1ccccc1/C=C/c1nn2c(-c3ccc(C)cc3)nnc2s1`, with 45.6 µg/mL (≈ 131 µM); and `c1ccc(COc2ccc3ccccc3c2CNCc2cccnc2)cc1`, with 7.91 µg/mL (≈ 22.3 µM).
Then `CC(C)OC(=O)COc1ccc(C(=O)NCc2ccccc2)cc1`, with 0.91 µg/mL (≈ 2.78 µM).
Take `Clc1ccc(-c2nnc(SCc3ccon3)o2)c(Cl)c1`: the IC50 is 0.79 µg/mL (≈ 2.41 µM).
Consider `C#CCOc1c(Cl)cc(/C=C/[N+](=O)[O-])cc1Cl`, for which the IC50 is > 50 µg/mL (inactive).
Then `O=C(Oc1ccc(Cl)c2cccnc12)c1cccs1`, with 0.37 µg/mL (≈ 1.28 µM); and `Cc1ccnc(NC(=O)COc2ccc(C(C)(C)C)cc2Br)c1`, with 5.61 µg/mL (≈ 14.9 µM); and `CCCc1cc2c(=O)c(-c3ccc4c(c3)OCCCO4)coc2cc1OCC(=O)OCC`, with 0.3 µg/mL (≈ 0.684 µM).
Turning to `COc1ccc(Br)cc1C(=O)Nc1ccc(N2CCN(C(=O)C(C)C)CC2)c(Cl)c1`, the 50% inhibitory concentration (IC50) is 5.08 µg/mL (≈ 10.3 µM).
On to `Cc1c(OC(=O)c2ccccc2Cl)ccc2c1CCCC2`, for which the half-inhibitory concentration (IC50) was 2.51 µg/mL (≈ 8.34 µM).
Then `COC(=O)Cc1c(C)c2ccc(OCC(=O)OCc3ccccc3)c(C)c2oc1=O`, with 0.11 µg/mL (≈ 0.268 µM); and `O=C(Nc1nnc(-c2ccccc2Cl)o1)c1ccco1`, with 1.83 µg/mL (≈ 6.32 µM).
As to `COC(=O)CSc1[nH]c2ccc(Br)cc2c1[N+](=O)[O-]`, the IC50 was > 50 µg/mL (inactive).
Next, `Cc1cccc(OCCCn2cnc3cc(C)c(C)cc32)c1`: 1.84 µg/mL (≈ 6.25 µM).
Next, `O=[N+]([O-])c1ccc(Sc2n[nH]c(-c3ccccc3)n2)nc1`: 10 µg/mL (≈ 33.5 µM); `CCc1ccc(OCC(=O)NC2CCCCC2)c(Br)c1`: > 50 µg/mL (inactive); `Cc1cc2ncn(Cc3ccccc3C)c2cc1C`: 11.1 µg/mL (≈ 44.4 µM).
In the case of `N#Cc1ccc(-c2ccc(OCC(=O)Nc3cccnc3)cc2)cc1`, the half-inhibitory concentration (IC50) is less than 0.1 µg/mL.
Next, `CCCc1cc2c(-c3ccccc3)cc(=O)oc2cc1OCC(=O)OC`: 5.24 µg/mL (≈ 14.9 µM); `Nc1c(C(=O)NCc2ccc(Cl)cc2)sc2nc3c(c(C(F)(F)F)c12)CCC3`: 9.45 µg/mL (≈ 22.2 µM).
Next, `COC(=O)CSc1nnc(NC(=O)c2ccc(Cl)cc2)s1`: 0.16 µg/mL (≈ 0.465 µM); `COc1ccc(Nc2sc(C(=O)C34CC5CC(CC(C5)C3)C4)c(N)c2C#N)cc1`: 12.1 µg/mL (≈ 29.6 µM); `C=CCNCCCCOc1ccc(Cl)cc1C(C)(C)C`: 4.64 µg/mL (≈ 15.7 µM).
Then `Cc1ccc(OCC(=O)c2ccc(F)cc2)cc1C`, with 2.46 µg/mL (≈ 9.52 µM).
Regarding `Cc1cc(Sc2ncnc(N)c2[N+](=O)[O-])ncn1`, the IC50 was 1.7 µg/mL (≈ 6.43 µM).
Then `CCOc1ccccc1NC(=O)CSc1nc2ccc(NC(=O)c3ccccc3Cl)cc2s1`, with 1.25 µg/mL (≈ 2.51 µM); and `O=C(CC12CC3CC(CC(C3)C1)C2)NC(=S)Nc1ccc2c(c1)OCCO2`, with > 50 µg/mL (inactive).
Then `COc1ccccc1C(=O)NNC(=S)NC(=O)c1ccc(-c2ccccc2)cc1`, with less than 0.1 µg/mL; and `c1ccc(Nc2nc(Nc3ccccc3)nc(N3CCNCC3)n2)cc1`, with 3.99 µg/mL (≈ 11.5 µM); and `COc1ccc(Nc2cc(C)nc3c2ccc2ccccc23)cc1`, with 1.62 µg/mL (≈ 5.15 µM).
Next, `CCN(CC)c1ccc(NC(=O)C(C)Oc2cccc(Cl)c2)cc1` (stereo not given): 6.4 µg/mL (≈ 18.5 µM).
As for `CCn1cc(C(=O)O)c(=O)c2cc(F)c(N3CCN(C(=S)NC)CC3)cc21`, the 50% inhibitory concentration (IC50) was 11.8 µg/mL (≈ 30.1 µM).
Then `FC(F)(F)c1cccc(NC(=S)Nc2cccc(Cl)c2)c1`, with 13.5 µg/mL (≈ 40.9 µM).
Turning to `COc1ccc(-c2cc(-c3ccccc3)nc(-n3nc(C)cc3C)n2)cc1`, the 50% inhibitory concentration (IC50) is 4.22 µg/mL (≈ 11.8 µM).
Next, `Cc1cc(C)nc(/N=C(\N)Nc2cc(Cl)ccc2Cl)n1`: 12.3 µg/mL (≈ 39.7 µM).
Next, `Cc1ccc(-c2[nH]c(-c3cc([N+](=O)[O-])ccc3O)nc2-c2ccccc2)cc1`: 5.58 µg/mL (≈ 15 µM); `Cc1cc(C)cc(C(=O)Nc2ccc(N3CCN(C(=O)c4cccs4)CC3)c(Cl)c2)c1`: 15.5 µg/mL (≈ 34.2 µM); `COC(=O)COc1ccc2c(=O)c(Oc3ccccc3)c(C(F)(F)F)oc2c1`: 6.6 µg/mL (≈ 16.7 µM).
Next, `Cc1ccc2nc(-c3ccc(N/C(N)=N\c4nc(C)cc(C)n4)cc3)sc2c1`: 25.7 µg/mL (≈ 66.2 µM); `CCOC(=O)COc1ccc(C(=O)NC2CCCCC2)cc1`: 1.09 µg/mL (≈ 3.57 µM).
Turning to `Cc1cc(Br)cc2c1N(CCCOc1ccccc1)C(=O)C2=O`, the concentration for half-maximal inhibition (IC50) is 9.2 µg/mL (≈ 24.6 µM).
Next, `N#Cc1ccc(-c2ccc(OCC(N)=O)cc2)cc1`: less than 0.1 µg/mL; `CCOC(=O)c1cnc2c(C)c(C)ccc2c1NCc1ccco1`: 3.91 µg/mL (≈ 12.1 µM).
Next, `CC(C)COc1ccc(CNC(=S)NCc2ccccc2)cc1`: 4.39 µg/mL (≈ 13.4 µM).
For the molecule `CN(C)c1ccc(Nc2nc(-c3ccc(O)cc3O)cs2)cc1`, the half-inhibitory concentration (IC50) is 1.54 µg/mL (≈ 4.7 µM).
Then `COc1cc(/C=C/c2ccc3cccc(O)c3n2)ccc1O`, with 0.27 µg/mL (≈ 0.92 µM).
Next, `CC1CCN(c2ccc(N)cc2)CC1`: 5.71 µg/mL (≈ 30 µM); `CN(C)c1ccc(C(O)(c2ccc(N(C)C)cc2)c2ccc(N(C)C)cc2)cc1`: 0.6 µg/mL (≈ 1.54 µM); `O=C(Oc1cccc2cccnc12)c1cc2ccccc2oc1=O`: 3.06 µg/mL (≈ 9.64 µM).
Next, `Cc1cc(OCCCn2ccnc2)cc(C(C)C)c1`: 6.24 µg/mL (≈ 24.2 µM); `Cc1ccc(NC(=O)c2ccc(OCC(=O)OC3CCCCC3)cc2)cc1`: 2.73 µg/mL (≈ 7.43 µM); `Cc1ccc(C(=O)CCNc2ccc(F)cc2)cc1`: > 50 µg/mL (inactive).
For the molecule `CCCCc1ccc(NC(=S)NC(=O)c2ccc(OCC)c(Cl)c2)cc1`, the IC50 was 0.34 µg/mL (≈ 0.87 µM).
As to `COc1cc2c(cc1NC(=O)C(=O)NCCCN1CCOCC1)oc1ccccc12`, the IC50 is > 50 µg/mL (inactive).
Then `Cc1cccc(NC(=O)c2cc(-c3cccs3)nc3ccccc23)n1`, with 1.82 µg/mL (≈ 5.27 µM); and `Cc1cccc(-n2c(N)cc(=O)nc2SCC(=O)Nc2nc(-c3ccccc3)cs2)c1`, with 3.08 µg/mL (≈ 6.85 µM); and `CC(=O)Oc1cccc2ccc(/C=C/c3cccc(Br)c3)nc12`, with less than 0.1 µg/mL.
For the molecule `CCC(C(=O)O/N=C(\N)Cc1cccc2ccccc12)c1ccccc1` (stereo not given), the IC50 was 10.1 µg/mL (≈ 29.2 µM).
